Data published in PubChem BioAssay (NCI).
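Following 48 hours of exposure in 96-well plates, responses at five concentrations were used to interpolate endpoints linearly. GI50 is the concentration that inhibits growth by half. TGI marks complete inhibition of growth.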

How the values were obtained:
Assay in all cases: DTP human tumour cell line panel, 48 h
786-0 renal = system: 786-0 renal
A498 renal = system: A498 renal
A549 NSCLC = system: A549 NSCLC
ACHN renal = system: ACHN renal
BT-549 breast = system: BT-549 breast
CAKI-1 renal = system: CAKI-1 renal
CCRF-CEM leukemia = system: CCRF-CEM leukemia
COLO 205 colon = system: COLO 205 colon
DU-145 prostate = system: DU-145 prostate
EKVX NSCLC = system: EKVX NSCLC
HCC-2998 colon = system: HCC-2998 colon
HCT-116 colon = system: HCT-116 colon
HCT-15 colon = system: HCT-15 colon
HL-60(TB) leukemia = system: HL-60(TB) leukemia
HOP-62 NSCLC = system: HOP-62 NSCLC
HOP-92 NSCLC = system: HOP-92 NSCLC
HS 578T breast = system: HS 578T breast
HT29 colon = system: HT29 colon
IGROV1 ovarian = system: IGROV1 ovarian
K-562 leukemia = system: K-562 leukemia
KM12 colon = system: KM12 colon
LOX IMVI melanoma = system: LOX IMVI melanoma
M14 melanoma = system: M14 melanoma
MALME-3M melanoma = system: MALME-3M melanoma
MCF7 breast = system: MCF7 breast
MDA-MB-231 breast = system: MDA-MB-231 breast
MDA-MB-435 = system: MDA-MB-435
MOLT-4 leukemia = system: MOLT-4 leukemia
NCI-H226 lung = system: NCI-H226 lung
NCI-H460 lung = system: NCI-H460 lung
NCI-H522 lung = system: NCI-H522 lung
NCI/ADR-RES ovarian = system: NCI/ADR-RES ovarian
OVCAR-3 ovarian = system: OVCAR-3 ovarian
OVCAR-4 ovarian = system: OVCAR-4 ovarian
OVCAR-5 ovarian = system: OVCAR-5 ovarian
OVCAR-8 ovarian = system: OVCAR-8 ovarian
PC-3 prostate = system: PC-3 prostate
RPMI-8226 leukemia = system: RPMI-8226 leukemia
RXF 393 renal = system: RXF 393 renal
SF-268 CNS = system: SF-268 CNS
SF-295 CNS = system: SF-295 CNS
SF-539 CNS = system: SF-539 CNS
SK-MEL-2 melanoma = system: SK-MEL-2 melanoma
SK-MEL-28 melanoma = system: SK-MEL-28 melanoma
SK-MEL-5 melanoma = system: SK-MEL-5 melanoma
SK-OV-3 ovarian = system: SK-OV-3 ovarian
SN12C renal = system: SN12C renal
SNB-19 CNS = system: SNB-19 CNS
SNB-75 CNS = system: SNB-75 CNS
SR leukemia = system: SR leukemia
SW-620 colon = system: SW-620 colon
T-47D breast = system: T-47D breast
TK-10 renal = system: TK-10 renal
U251 CNS = system: U251 CNS
UACC-257 melanoma = system: UACC-257 melanoma
UACC-62 melanoma = system: UACC-62 melanoma
UO-31 renal = system: UO-31 renal

## CS(=O)(=O)c1nccc(-c2c(-c3ccc(F)c(OCc4ccc(F)cc4)c3)nc3sccn23)n1
786-0 renal
  GI50: 20.9 µM
  TGI: 53.3 µM
A498 renal
  GI50: 13 µM
  TGI: 26 µM
A549 NSCLC
  GI50: 17.7 µM
  TGI: 34.6 µM
ACHN renal
  GI50: 16.6 µM
  TGI: 30.9 µM
BT-549 breast
  GI50: 21.2 µM
  TGI: 63.6 µM
CAKI-1 renal
  GI50: 14.8 µM
  TGI: 28 µM
CCRF-CEM leukemia
  GI50: 3.38 µM
  TGI: 13.1 µM
COLO 205 colon
  GI50: 17.6 µM
  TGI: 34 µM
DU-145 prostate
  GI50: 3.33 µM
  TGI: 11.1 µM
EKVX NSCLC
  GI50: 15.6 µM
  TGI: 29.1 µM
HCC-2998 colon
  GI50: 14.2 µM
  TGI: 27.9 µM
HCT-116 colon
  GI50: 14.4 µM
  TGI: 27.5 µM
HCT-15 colon
  GI50: 13.8 µM
  TGI: 31.4 µM
HL-60(TB) leukemia
  GI50: 3.89 µM
  TGI: 15.3 µM
HOP-62 NSCLC
  GI50: 16.2 µM
  TGI: 30.9 µM
HOP-92 NSCLC
  GI50: 5.43 µM
  TGI: 21.5 µM
HS 578T breast
  GI50: 21.2 µM
  TGI: 72.2 µM
HT29 colon
  GI50: 21.6 µM
  TGI: 61.6 µM
IGROV1 ovarian
  GI50: 15.5 µM
  TGI: 31.8 µM
K-562 leukemia
  GI50: 21 µM
  TGI: 72.8 µM
KM12 colon
  GI50: 17.6 µM
  TGI: 33.8 µM
LOX IMVI melanoma
  GI50: 10.2 µM
  TGI: 24.5 µM
M14 melanoma
  GI50: 18.5 µM
  TGI: 36.7 µM
MALME-3M melanoma
  GI50: 24.5 µM
  TGI: 71 µM
MCF7 breast
  GI50: 5.69 µM
  TGI: 22.2 µM
MDA-MB-231 breast
  GI50: 18.1 µM
  TGI: 39.4 µM
MDA-MB-435
  GI50: 16.5 µM
  TGI: 31 µM
MOLT-4 leukemia
  GI50: 18.2 µM
  TGI: 44.4 µM
NCI-H226 lung
  GI50: 28.3 µM
  TGI: > 100 µM
NCI-H460 lung
  GI50: 13.5 µM
  TGI: 27.4 µM
NCI-H522 lung
  GI50: 13.4 µM
  TGI: 30.3 µM
NCI/ADR-RES ovarian
  GI50: 18 µM
  TGI: 38.7 µM
OVCAR-3 ovarian
  GI50: 13.1 µM
  TGI: 25.8 µM
OVCAR-4 ovarian
  GI50: 17.8 µM
  TGI: 44.6 µM
OVCAR-5 ovarian
  GI50: 67.6 µM
  TGI: > 100 µM
OVCAR-8 ovarian
  GI50: 15 µM
  TGI: 28.3 µM
PC-3 prostate
  GI50: 17.2 µM
  TGI: 34.9 µM
RPMI-8226 leukemia
  GI50: 20 µM
  TGI: 54.7 µM
RXF 393 renal
  GI50: 14.3 µM
  TGI: 29.2 µM
SF-268 CNS
  GI50: 15.9 µM
  TGI: 32.8 µM
SF-295 CNS
  GI50: 23 µM
  TGI: 52 µM
SF-539 CNS
  GI50: 17.8 µM
  TGI: 36.7 µM
SK-MEL-2 melanoma
  GI50: 15.2 µM
  TGI: 29.6 µM
SK-MEL-28 melanoma
  GI50: 16.1 µM
  TGI: 29.8 µM
SK-MEL-5 melanoma
  GI50: 17.4 µM
  TGI: 33.1 µM
SK-OV-3 ovarian
  GI50: 93.6 µM
  TGI: > 100 µM
SN12C renal
  GI50: 23.7 µM
  TGI: > 100 µM
SNB-19 CNS
  GI50: 16 µM
  TGI: 30 µM
SNB-75 CNS
  GI50: 16.4 µM
  TGI: > 100 µM
SR leukemia
  GI50: 13.1 µM
  TGI: 60.8 µM
SW-620 colon
  GI50: 16.1 µM
  TGI: 31.8 µM
T-47D breast
  GI50: 11.1 µM
  TGI: 26.2 µM
TK-10 renal
  GI50: 22.1 µM
  TGI: 66.3 µM
U251 CNS
  GI50: 17.8 µM
  TGI: 37.9 µM
UACC-257 melanoma
  GI50: 14.5 µM
  TGI: 28.4 µM
UACC-62 melanoma
  GI50: 16.3 µM
  TGI: 34.2 µM
UO-31 renal
  GI50: 15.1 µM
  TGI: 36.3 µM
